Laboratory results as given in PubChem BioAssay (NCI).
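Where inhibition never reached the appropriate level, the endpoint shown equals the highest concentration tested. Otherwise, values were interpolated linearly from a five-concentration, 48-hour dose response in 96-well plates. TGI denotes the concentration required for complete inhibition of growth.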

How the values were obtained:
Experiment in all cases: NCI anticancer screen, dose series, 48 h
NCI-H522 lung = tested on: NCI-H522 lung
RXF 393 renal = tested on: RXF 393 renal
SN12C renal = tested on: SN12C renal
MDA-N = tested on: MDA-N
MOLT-4 leukemia = tested on: MOLT-4 leukemia
HL-60(TB) leukemia = tested on: HL-60(TB) leukemia
UO-31 renal = tested on: UO-31 renal
HCT-15 colon = tested on: HCT-15 colon
NCI-H460 lung = tested on: NCI-H460 lung
BT-549 breast = tested on: BT-549 breast
SR leukemia = tested on: SR leukemia
SNB-75 CNS = tested on: SNB-75 CNS
CAKI-1 renal = tested on: CAKI-1 renal
HOP-62 NSCLC = tested on: HOP-62 NSCLC
NCI-H23 lung = tested on: NCI-H23 lung
OVCAR-4 ovarian = tested on: OVCAR-4 ovarian
HCC-2998 colon = tested on: HCC-2998 colon
OVCAR-3 ovarian = tested on: OVCAR-3 ovarian
SK-MEL-5 melanoma = tested on: SK-MEL-5 melanoma
CCRF-CEM leukemia = tested on: CCRF-CEM leukemia
ACHN renal = tested on: ACHN renal
A549 NSCLC = tested on: A549 NSCLC
DU-145 prostate = tested on: DU-145 prostate
SK-MEL-28 melanoma = tested on: SK-MEL-28 melanoma
SW-620 colon = tested on: SW-620 colon
HT29 colon = tested on: HT29 colon
M14 melanoma = tested on: M14 melanoma
MDA-MB-435 = tested on: MDA-MB-435
MCF7 breast = tested on: MCF7 breast
COLO 205 colon = tested on: COLO 205 colon
HCT-116 colon = tested on: HCT-116 colon
SK-OV-3 ovarian = tested on: SK-OV-3 ovarian
SNB-19 CNS = tested on: SNB-19 CNS
PC-3 prostate = tested on: PC-3 prostate
NCI-H226 lung = tested on: NCI-H226 lung
A498 renal = tested on: A498 renal
UACC-257 melanoma = tested on: UACC-257 melanoma
RPMI-8226 leukemia = tested on: RPMI-8226 leukemia
EKVX NSCLC = tested on: EKVX NSCLC
K-562 leukemia = tested on: K-562 leukemia
KM12 colon = tested on: KM12 colon
HOP-92 NSCLC = tested on: HOP-92 NSCLC
NCI/ADR-RES ovarian = tested on: NCI/ADR-RES ovarian
U251 CNS = tested on: U251 CNS
UACC-62 melanoma = tested on: UACC-62 melanoma
MALME-3M melanoma = tested on: MALME-3M melanoma
SF-295 CNS = tested on: SF-295 CNS
OVCAR-8 ovarian = tested on: OVCAR-8 ovarian
IGROV1 ovarian = tested on: IGROV1 ovarian
MDA-MB-231 breast = tested on: MDA-MB-231 breast
786-0 renal = tested on: 786-0 renal
SK-MEL-2 melanoma = tested on: SK-MEL-2 melanoma
LOX IMVI melanoma = tested on: LOX IMVI melanoma
OVCAR-5 ovarian = tested on: OVCAR-5 ovarian
SF-539 CNS = tested on: SF-539 CNS
HS 578T breast = tested on: HS 578T breast
SF-268 CNS = tested on: SF-268 CNS
TK-10 renal = tested on: TK-10 renal

Measured: TGI

c1ccc2c(c1)c(N1CCCCC1)cc1nc3c(cc(N4CCCCC4)c4ccccc43)nc12
not listed: HS 578T breast | SF-268 CNS | TK-10 renal
> 100 µM: all other assays above

Cc1cc(C)c(C2CC(O)C(CO)O2)cc1C (stereo unspecified)
not listed: RXF 393 renal | HL-60(TB) leukemia | DU-145 prostate | MCF7 breast | COLO 205 colon | A498 renal | HOP-92 NSCLC
> 100 µM: all other assays above
